Measured values published in patent US8168651B2, “Protein kinase modulators” (Cylene Pharmaceuticals, Inc., priority 2008, dated 2012).

Experiments:
Experiment in all cases: Standardized radiometric kinase assays, percentage of activity at 0.5 μM;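 also: Read-out is ³³P-labelled substrate protein phosphorylated by each kinase, captured on filters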
[1] = target: each individual kinase of the panel (Homo sapiens, UniProt Q8N4C8)
[2] = target: each individual kinase of the panel (Homo sapiens, UniProt P43405)
[3] = target: each individual kinase of the panel (Homo sapiens, UniProt Q86Z02)
[4] = target: each individual kinase of the panel (Homo sapiens, UniProt P05771)
[5] = target: each individual kinase of the panel (Homo sapiens, UniProt P53355)
[6] = target: each individual kinase of the panel (Homo sapiens, UniProt Q9UPE1)
[7] = target: each individual kinase of the panel (Homo sapiens, UniProt Q13188)
[8] = target: each individual kinase of the panel (Homo sapiens, UniProt O96017)
[9] = target: each individual kinase of the panel (Homo sapiens, UniProt Q08881)
[10] = target: each individual kinase of the panel (Homo sapiens, UniProt P53779)
[11] = target: each individual kinase of the panel (Homo sapiens, UniProt P54753)
Sequence of each individual kinase of the panel (Homo sapiens, UniProt P54753) (P54753 34-998 limits assumed): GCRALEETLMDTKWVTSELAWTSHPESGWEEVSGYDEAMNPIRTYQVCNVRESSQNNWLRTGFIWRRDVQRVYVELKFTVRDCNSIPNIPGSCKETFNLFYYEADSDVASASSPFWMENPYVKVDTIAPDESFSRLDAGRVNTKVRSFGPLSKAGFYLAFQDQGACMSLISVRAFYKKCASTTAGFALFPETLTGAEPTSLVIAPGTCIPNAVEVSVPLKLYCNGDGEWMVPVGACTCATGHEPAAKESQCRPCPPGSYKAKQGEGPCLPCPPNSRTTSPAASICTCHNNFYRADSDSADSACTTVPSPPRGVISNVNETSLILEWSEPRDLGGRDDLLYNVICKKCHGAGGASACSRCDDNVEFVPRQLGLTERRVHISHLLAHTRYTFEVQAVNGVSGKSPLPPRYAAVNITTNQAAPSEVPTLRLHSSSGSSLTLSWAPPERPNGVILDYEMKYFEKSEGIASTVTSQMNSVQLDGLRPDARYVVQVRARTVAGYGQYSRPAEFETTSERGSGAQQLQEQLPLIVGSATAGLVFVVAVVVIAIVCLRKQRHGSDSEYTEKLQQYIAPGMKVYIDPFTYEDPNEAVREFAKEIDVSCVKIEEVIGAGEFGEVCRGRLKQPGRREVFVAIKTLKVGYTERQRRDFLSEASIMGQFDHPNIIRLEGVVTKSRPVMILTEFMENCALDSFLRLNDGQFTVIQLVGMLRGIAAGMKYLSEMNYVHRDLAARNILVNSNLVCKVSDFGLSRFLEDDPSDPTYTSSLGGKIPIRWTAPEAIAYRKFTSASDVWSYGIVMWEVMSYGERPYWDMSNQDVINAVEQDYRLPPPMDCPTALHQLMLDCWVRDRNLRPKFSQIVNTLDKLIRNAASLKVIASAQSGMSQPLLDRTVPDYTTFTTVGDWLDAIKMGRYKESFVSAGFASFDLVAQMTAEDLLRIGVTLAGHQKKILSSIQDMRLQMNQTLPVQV

[12] = target: each individual kinase of the panel (Homo sapiens, UniProt Q15139)
[13] = target: each individual kinase of the panel (Homo sapiens, UniProt Q16539, T106M)
Sequence of each individual kinase of the panel (Homo sapiens, UniProt Q16539, T106M) (Q16539 2-360 T106M limits assumed): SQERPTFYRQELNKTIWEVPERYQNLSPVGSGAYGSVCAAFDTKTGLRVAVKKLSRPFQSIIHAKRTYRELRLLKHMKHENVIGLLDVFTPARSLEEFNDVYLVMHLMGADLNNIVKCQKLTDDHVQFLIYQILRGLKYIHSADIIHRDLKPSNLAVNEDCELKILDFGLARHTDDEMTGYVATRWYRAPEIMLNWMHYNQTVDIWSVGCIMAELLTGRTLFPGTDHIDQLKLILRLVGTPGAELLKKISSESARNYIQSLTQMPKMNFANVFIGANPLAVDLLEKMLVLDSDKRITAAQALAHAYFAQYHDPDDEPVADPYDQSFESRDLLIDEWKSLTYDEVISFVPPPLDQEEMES

[14] = target: each individual kinase of the panel (Homo sapiens, UniProt O14920)
[15] = target: each individual kinase of the panel (Homo sapiens, UniProt Q96RG2)
[16] = target: each individual kinase of the panel (Homo sapiens, UniProt Q9Y6E0)
[17] = target: each individual kinase of the panel (Homo sapiens, UniProt O15264)
[18] = target: each individual kinase of the panel (Homo sapiens, UniProt P49761)
[19] = target: each individual kinase of the panel (Homo sapiens, UniProt O75116)
[20] = target: each individual kinase of the panel (Homo sapiens, UniProt Q8TDC3)
[21] = target: each individual kinase of the panel (Homo sapiens, UniProt O94806)
[22] = target: each individual kinase of the panel (Homo sapiens, UniProt Q12851)
[23] = target: each individual kinase of the panel (Homo sapiens, UniProt Q96PF2)
[24] = target: each individual kinase of the panel (Homo sapiens, UniProt Q9UL54)
[25] = target: each individual kinase of the panel (Homo sapiens, UniProt Q15831)
[26] = target: each individual kinase of the panel (Homo sapiens, UniProt O15146)
Sequence of each individual kinase of the panel (Homo sapiens, UniProt O15146) (O15146 24-869 limits assumed): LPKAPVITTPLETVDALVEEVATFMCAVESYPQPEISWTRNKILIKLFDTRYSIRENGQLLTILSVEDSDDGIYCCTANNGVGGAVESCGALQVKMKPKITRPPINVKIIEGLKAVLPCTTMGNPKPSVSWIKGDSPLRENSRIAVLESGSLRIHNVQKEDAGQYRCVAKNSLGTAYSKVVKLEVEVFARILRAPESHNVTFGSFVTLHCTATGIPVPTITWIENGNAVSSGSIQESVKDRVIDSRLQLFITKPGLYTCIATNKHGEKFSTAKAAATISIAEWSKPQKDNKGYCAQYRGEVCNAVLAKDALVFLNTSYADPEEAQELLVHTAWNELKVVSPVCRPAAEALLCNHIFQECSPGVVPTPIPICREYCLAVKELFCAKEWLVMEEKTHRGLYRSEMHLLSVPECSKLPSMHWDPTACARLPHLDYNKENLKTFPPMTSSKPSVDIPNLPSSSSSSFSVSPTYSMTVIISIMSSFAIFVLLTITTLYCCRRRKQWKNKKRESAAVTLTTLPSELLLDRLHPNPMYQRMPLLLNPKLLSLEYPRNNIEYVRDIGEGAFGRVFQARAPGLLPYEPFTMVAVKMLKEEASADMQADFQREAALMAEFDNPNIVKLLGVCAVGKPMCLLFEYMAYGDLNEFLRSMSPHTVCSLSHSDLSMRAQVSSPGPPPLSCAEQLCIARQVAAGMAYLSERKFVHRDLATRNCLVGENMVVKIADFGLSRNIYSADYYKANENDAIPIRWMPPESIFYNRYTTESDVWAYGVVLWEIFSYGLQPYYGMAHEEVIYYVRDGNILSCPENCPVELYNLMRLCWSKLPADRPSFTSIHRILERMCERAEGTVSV

[27] = target: each individual kinase of the panel (Homo sapiens, UniProt Q9BXA7)
[28] = target: each individual kinase of the panel (Homo sapiens, UniProt Q13237)
Sequence of each individual kinase of the panel (Homo sapiens, UniProt Q13237) (Q13237 2-762 limits assumed): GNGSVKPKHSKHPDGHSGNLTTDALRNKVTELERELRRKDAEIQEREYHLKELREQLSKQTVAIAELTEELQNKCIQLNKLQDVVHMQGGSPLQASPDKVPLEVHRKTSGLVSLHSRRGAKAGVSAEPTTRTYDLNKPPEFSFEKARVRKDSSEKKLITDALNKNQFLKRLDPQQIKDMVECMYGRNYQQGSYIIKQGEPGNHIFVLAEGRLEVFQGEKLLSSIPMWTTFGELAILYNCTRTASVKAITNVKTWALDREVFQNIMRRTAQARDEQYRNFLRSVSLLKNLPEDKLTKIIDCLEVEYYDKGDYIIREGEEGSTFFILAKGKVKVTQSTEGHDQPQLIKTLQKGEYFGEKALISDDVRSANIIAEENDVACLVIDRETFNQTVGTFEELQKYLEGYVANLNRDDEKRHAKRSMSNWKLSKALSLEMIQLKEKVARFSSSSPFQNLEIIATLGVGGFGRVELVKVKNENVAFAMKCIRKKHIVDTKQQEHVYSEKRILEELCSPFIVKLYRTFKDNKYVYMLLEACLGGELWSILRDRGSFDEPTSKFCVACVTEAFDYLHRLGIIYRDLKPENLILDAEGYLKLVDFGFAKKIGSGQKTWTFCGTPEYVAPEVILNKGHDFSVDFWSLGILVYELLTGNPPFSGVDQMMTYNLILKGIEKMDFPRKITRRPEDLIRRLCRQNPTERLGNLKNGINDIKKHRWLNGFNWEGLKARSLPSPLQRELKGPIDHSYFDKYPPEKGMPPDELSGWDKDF

[29] = target: each individual kinase of the panel (Homo sapiens, UniProt P29322)
Sequence of each individual kinase of the panel (Homo sapiens, UniProt P29322) (P29322 28-1005 limits assumed): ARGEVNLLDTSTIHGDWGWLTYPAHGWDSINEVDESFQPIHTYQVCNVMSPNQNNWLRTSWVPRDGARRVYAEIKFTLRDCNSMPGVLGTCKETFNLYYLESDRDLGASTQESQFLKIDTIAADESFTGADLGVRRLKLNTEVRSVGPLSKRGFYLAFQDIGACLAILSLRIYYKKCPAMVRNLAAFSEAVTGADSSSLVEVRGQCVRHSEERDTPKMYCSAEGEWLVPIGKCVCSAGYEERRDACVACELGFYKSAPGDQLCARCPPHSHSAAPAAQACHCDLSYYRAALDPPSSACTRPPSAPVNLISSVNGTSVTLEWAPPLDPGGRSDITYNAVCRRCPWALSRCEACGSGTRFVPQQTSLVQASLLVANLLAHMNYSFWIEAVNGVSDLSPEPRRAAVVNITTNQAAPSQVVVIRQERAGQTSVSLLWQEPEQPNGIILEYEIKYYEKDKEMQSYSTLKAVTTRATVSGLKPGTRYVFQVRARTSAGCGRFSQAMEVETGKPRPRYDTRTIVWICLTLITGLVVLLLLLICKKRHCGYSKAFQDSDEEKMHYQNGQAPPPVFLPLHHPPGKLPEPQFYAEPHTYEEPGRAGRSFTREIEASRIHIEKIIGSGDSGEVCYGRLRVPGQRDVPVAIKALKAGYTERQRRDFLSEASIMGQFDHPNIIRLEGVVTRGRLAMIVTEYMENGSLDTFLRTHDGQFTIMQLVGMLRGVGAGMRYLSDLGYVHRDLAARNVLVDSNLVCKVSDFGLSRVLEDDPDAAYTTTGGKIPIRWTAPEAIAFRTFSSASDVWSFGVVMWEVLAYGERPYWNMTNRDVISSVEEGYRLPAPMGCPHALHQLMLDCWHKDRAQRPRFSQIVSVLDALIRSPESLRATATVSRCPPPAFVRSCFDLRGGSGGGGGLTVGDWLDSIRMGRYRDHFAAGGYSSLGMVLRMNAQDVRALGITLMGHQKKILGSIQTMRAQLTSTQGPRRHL

[30] = target: each individual kinase of the panel (Homo sapiens, UniProt Q02156)
[31] = target: each individual kinase of the panel (Homo sapiens, UniProt P29317)
Sequence of each individual kinase of the panel (Homo sapiens, UniProt P29317) (P29317 24-976 limits assumed): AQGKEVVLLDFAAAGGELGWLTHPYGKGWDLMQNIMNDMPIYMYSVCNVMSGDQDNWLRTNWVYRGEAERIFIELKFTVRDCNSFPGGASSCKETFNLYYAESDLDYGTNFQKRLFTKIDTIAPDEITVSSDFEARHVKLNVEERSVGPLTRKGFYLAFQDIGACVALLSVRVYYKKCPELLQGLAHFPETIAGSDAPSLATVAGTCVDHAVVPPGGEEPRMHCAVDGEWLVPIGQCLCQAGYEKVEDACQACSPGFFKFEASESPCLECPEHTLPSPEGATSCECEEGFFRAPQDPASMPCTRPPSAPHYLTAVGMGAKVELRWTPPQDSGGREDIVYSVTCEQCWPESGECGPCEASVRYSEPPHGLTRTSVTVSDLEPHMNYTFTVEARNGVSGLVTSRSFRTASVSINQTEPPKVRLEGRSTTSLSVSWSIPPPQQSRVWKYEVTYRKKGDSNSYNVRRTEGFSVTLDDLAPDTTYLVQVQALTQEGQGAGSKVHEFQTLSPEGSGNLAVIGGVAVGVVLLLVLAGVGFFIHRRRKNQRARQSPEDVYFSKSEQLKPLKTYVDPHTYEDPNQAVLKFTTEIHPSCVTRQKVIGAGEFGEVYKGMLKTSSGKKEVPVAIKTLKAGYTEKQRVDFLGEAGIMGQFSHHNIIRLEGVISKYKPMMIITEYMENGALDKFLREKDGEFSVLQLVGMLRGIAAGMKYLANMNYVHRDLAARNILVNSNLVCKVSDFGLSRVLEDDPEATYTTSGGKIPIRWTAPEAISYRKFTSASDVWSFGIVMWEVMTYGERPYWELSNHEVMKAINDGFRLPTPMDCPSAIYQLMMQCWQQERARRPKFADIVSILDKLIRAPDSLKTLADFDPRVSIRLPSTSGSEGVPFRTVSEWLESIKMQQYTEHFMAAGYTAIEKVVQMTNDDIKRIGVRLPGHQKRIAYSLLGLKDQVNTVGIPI

Structure (SMILES): C#Cc1cccc(Nc2nc3cc(C(=O)O)ccc3c3cncnc23)c1 [drawing 1135]
- MINK percentage of activity [1]: −13%
- SYK percentage of activity [2]: −9%
- HIPK1 percentage of activity [3]: 90%
- PRKCB1 percentage of activity [4]: 0%
- DAPK1 percentage of activity [5]: 58%
- MSSK1 percentage of activity [6]: −3%
- MST2 percentage of activity [7]: −6%
- CHK2 percentage of activity [8]: 5%
- ITK;Itk(h) percentage of activity [9]: 0%
- JNK3 percentage of activity [10]: −3%
- EPHB3 percentage of activity [11]: −36%
- PRKCM percentage of activity [12]: −4%
- p38-alpha (T106M) percentage of activity [13]: −8%
- IKK beta percentage of activity [14]: 5%
- PASK percentage of activity [15]: 87%
- MST3 percentage of activity [16]: 0%
- p38-delta percentage of activity [17]: −1%
- CLK3 percentage of activity [18]: 83%
- ROCK-II percentage of activity [19]: −4%
- BRSK1 percentage of activity [20]: −1%
- PRKCN percentage of activity [21]: 2%
- GCK percentage of activity [22]: 1%
- TSSK2 percentage of activity [23]: −9%
- TAO2 percentage of activity [24]: 3%
- LKB1 percentage of activity [25]: −2%
- MUSK percentage of activity [26]: −6%
- TSSK1 percentage of activity [27]: −18%
- PRKG2 percentage of activity [28]: 2%
- EPHA8 percentage of activity [29]: −15%
- PRKCE percentage of activity [30]: 0%
- EPHA2 percentage of activity [31]: 2%
